In test [1] the target is Human NPY4/PP1 receptor (Homo sapiens, UniProt P50391). Briefly: Human NPY4/PP1 Receptor Binding Assay. The following applies: [125I]human PP; read-out: hNPY4 IC50.
For test [2], the target named is T1, Human NPY1 Receptor (Homo sapiens, UniProt P25929).
T1 sequence (P25929 1-384): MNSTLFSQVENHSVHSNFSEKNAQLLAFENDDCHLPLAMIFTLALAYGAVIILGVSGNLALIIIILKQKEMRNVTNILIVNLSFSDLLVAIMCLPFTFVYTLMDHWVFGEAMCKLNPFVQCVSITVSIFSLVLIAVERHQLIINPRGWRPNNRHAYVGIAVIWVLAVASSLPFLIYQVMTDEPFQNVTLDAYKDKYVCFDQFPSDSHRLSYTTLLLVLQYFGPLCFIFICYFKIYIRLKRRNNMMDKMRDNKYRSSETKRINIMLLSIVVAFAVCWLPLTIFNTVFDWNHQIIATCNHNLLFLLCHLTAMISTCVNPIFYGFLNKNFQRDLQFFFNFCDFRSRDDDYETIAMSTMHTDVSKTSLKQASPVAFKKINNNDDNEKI
Description: Human NPY1 Receptor Binding Assay. The following applies: SK-N-MC cells, [125I]PYY; read-out: hNPY1 IC50.

Test [3] concerns the target T2, Rat NPY5 Receptor (Rattus norvegicus, UniProt Q63634).
T2 sequence (Q63634 1-445): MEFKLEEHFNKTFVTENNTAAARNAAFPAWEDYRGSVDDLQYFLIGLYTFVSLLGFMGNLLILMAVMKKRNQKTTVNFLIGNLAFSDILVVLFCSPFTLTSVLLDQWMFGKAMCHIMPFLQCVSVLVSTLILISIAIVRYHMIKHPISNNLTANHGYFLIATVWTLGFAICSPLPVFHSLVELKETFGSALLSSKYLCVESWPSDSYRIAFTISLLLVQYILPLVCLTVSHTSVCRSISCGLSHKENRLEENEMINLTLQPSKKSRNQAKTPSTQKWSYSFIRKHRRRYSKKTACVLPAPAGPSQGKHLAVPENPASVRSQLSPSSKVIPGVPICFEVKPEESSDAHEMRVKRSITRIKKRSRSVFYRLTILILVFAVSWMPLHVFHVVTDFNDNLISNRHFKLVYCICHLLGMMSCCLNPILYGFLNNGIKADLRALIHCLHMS
Briefly: Rat NPY5 Receptor Binding Assay. Conditions: [125I]PYY; read-out: rNPY5 IC50.

For test [4], the target named is T3, Human NPY2 receptor (Homo sapiens, UniProt P49146).
T3 sequence (P49146 1-381): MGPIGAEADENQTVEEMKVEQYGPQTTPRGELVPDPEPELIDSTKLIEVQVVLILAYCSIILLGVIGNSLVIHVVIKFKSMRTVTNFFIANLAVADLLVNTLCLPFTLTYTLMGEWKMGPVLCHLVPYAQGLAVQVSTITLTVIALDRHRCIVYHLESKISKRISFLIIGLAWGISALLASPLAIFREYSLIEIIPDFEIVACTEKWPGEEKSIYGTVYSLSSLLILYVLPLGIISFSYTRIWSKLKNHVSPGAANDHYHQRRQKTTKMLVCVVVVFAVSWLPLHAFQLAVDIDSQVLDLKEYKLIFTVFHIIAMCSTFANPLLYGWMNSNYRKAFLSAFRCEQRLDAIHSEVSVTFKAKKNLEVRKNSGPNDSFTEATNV
Briefly: Human NPY2 Receptor Binding Assay. The following applies: [125I]PYY; read-out: hPPY2 IC50.

Test [5] has as its target T4, Human NPY5 Receptor (Homo sapiens, UniProt Q15761).
T4 sequence (Q15761 1-445): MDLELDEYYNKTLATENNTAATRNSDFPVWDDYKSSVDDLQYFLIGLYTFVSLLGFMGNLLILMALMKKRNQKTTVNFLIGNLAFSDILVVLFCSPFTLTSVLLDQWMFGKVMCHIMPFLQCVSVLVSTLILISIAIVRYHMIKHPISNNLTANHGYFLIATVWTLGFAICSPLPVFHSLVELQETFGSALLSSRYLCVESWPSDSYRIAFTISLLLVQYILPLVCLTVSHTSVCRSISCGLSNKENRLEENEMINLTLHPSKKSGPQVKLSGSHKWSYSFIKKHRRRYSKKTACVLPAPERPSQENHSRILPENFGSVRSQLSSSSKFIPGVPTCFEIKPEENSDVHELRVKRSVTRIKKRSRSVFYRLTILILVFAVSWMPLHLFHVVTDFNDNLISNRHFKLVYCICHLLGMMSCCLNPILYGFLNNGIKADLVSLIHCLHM
Description: Human NPY5 Receptor Binding Assay. The following applies: [125I]PYY; read-out: hNPY5 IC50.

Molecules are shown by their SMILES. Where only a bound is given, the exact number is not on record here.

Sequence of Human NPY4/PP1 receptor (P50391 whole entry): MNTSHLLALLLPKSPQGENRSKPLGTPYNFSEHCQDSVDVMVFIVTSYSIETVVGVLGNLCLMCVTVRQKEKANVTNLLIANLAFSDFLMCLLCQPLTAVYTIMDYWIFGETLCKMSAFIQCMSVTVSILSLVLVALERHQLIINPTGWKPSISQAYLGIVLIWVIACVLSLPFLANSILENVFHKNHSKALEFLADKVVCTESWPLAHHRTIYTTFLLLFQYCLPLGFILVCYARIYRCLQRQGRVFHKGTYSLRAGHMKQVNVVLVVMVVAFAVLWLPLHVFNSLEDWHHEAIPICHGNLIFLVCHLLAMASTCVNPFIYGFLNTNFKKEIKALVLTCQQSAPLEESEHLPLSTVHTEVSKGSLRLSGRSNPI

In the case of `CCC(C)c1ccc(NC(=O)CSc2nccn2C)cc1` (centres unmarked) [Compound 148, N-(4-sec-Butyl-phenyl)-2-(1-methyl-1H-imidazo1-2-ylsulfanyl)-acetamide, reference compound], the IC50 in test [1] was above 5 µM; in test [2], above 5 µM; in test [3], 2.4 µM; in test [4], above 5 µM; in test [5], 4 µM.

Consider `CC(C)c1ccc(NC(=O)CSc2nnc(Cn3cc(C(F)(F)F)ccc3=O)n2C)cc1` [Compound 176, N-(4-isopropyl-phenyl)-2-[4-methyl-5-(2-oxo-5-trifluoromethyl-2H-yridin-1-ylmethyl)-4H-[1,2,4]triazol-3-ylsulfanyl]-acetamide, reference compound], for which the IC50 in test [1] was above 5 µM; in test [2], above 5 µM; in test [4], above 5 µM; in test [5], 3 µM.

Take `Cn1c(Cc2ccsc2)nnc1SCC(=O)Nc1ccc(Cl)cc1` [Compound 168, N-(4-Chloro-phenyl)-2-(4-methyl-5-thiophen-3-ylmethyl-4H-[1,2,4]triazol-3-ylsulfanyl)-acetamide, reference compound]: the IC50 is above 5 µM in test [1], above 5 µM in test [2], above 10 µM in test [3] and above 10 µM in test [5].

As for `COC(Cn1c(SCC(=O)Nc2ccc(C(C)C)cc2)nnc1-c1ccccc1)OC` [Compound 163, 2-[4-(2,2-Dimethoxy-ethyl)-5-phenyl-4H-[1,2,4]triazol-3-ylsulfanyl]-N-(4-isopmpyl-phenyl)-acetamide, reference compound], the IC50 in test [1] was above 5 µM; in test [2], above 5 µM; in test [3], above 10 µM; in test [5] it was above 10 µM.

With `CCC(C)c1ccc(NC(=O)CSc2nnnn2C)cc1` (centres unmarked) [Compound 171, N-(4-sec-Butyl-phenyl)-2-(1-methyl-1H-tetrazol-5-ylsulfanyl)-acetamide, reference compound], the half-maximal inhibitory concentration (IC50) in test [1] was above 5 µM; in test [2] it was above 5 µM; in test [3], 0.525 µM; in test [5], 0.553 µM.

For `CSc1sc(-c2nnc(SCC(=O)Nc3ccc(Cl)cc3)n2C)c2c1C=CCC2` [Compound 159, N-(4-Chloro-phenyl)-2-[4-methyl-5-(3-methylsulfanyl-6,7-dihydro-benzo[c]thiophen-1-yl)-4H-[1,2,4]triazol-3-ylsulfanyl]-acetamide, reference compound], the IC50 was above 5 µM in test [1], above 5 µM in test [2], above 10 µM in test [3] and above 10 µM in test [5].

With `Cn1cnnc1SCC(=O)Nc1ccc(C2CCCCC2)cc1` [Compound 173, N-(4-Cyclohexyl-phenyl)-2-(4-methyl-4H-[1,2,4]triazol-3-ylsulfanyl)-acetamide, reference compound], the IC50 is above 5 µM in test [1], above 5 µM in test [2], 0.073 µM in test [3] and 0.08 µM in test [5].

On to `Cc1ccc(NC(=O)CSc2nncn2C)cc1` [Compound 174, 2-(4-Methyl-4H-[1,2,4]triazol-3-ylsulfanyl)-N-p-tolyl-acetamide, reference compound], for which the concentration for half-maximal inhibition (IC50) in test [1] is above 5 µM; in test [2], above 5 µM; in test [3] it was above 10 µM; in test [5] it was above 10 µM.

Regarding `Cn1c(Cn2cc(C(F)(F)F)ccc2=O)nnc1SCC(=O)Nc1ccc(Cl)cc1` [Compound 175, N-(4-Chloro-phenyl)-2-[4-methyl-5-(2-oxo-5-trifluoromethyl-2H-pyridin-1-ylmethyl)-4H-[1,2,4]triazol-3-ylsulfanyl]-acetamide, reference compound], the IC50 in test [1] was above 5 µM; in test [2], above 5 µM; in test [4], above 5 µM; in test [5] it was 7 µM.

Take `Cc1cc(-c2nnc(SCC(=O)Nc3ccccc3)n2C)no1` [Compound 150, 2-[4-Methyl-5-(5-methyl-isoxazol-3-yl)-4H-[1,2,4]triazol-3-ylsulfanyl]-N-phenyl-acetamide, reference compound]: the IC50 in test [1] was above 5 µM; in test [2], above 5 µM; in test [3], above 10 µM; in test [5] it was above 10 µM.

Consider `CC(C)c1ccc(NC(=O)CSc2nnc(Cc3ccsc3)n2C)cc1` [Compound 158, N-(4-isopropyl-phenyl)-2-(4-methyl-5-thiophen-3-ylmethyl-4H-[1,2,4]triazol-3-ylsulfanyl)-acetamide, reference compound], for which the half-inhibitory concentration (IC50) in test [1] is above 5 µM; in test [2] it was above 5 µM; in test [3] it was above 10 µM; in test [5], above 10 µM.

For `CC(C)c1ccc(NC(=O)CSc2nc3cc(C(F)(F)F)ccc3n2C(C)C)cc1` [Compound 165, N-(4-Isopropyl-phenyl)-2-(1-isopropyl-5-trifluoromethyl-1H-benzolmidazol-2-ylsulfanyl)-acetamide, reference compound], the IC50 in test [1] was above 5 µM; in test [2], above 5 µM; in test [3], above 10 µM; in test [5] it was above 10 µM.

As for `Cn1c(SCC(=O)Nc2ccc(Cl)cc2)nnc1-c1ncc(C(F)(F)F)cc1Cl` [Compound 160, reference compound], the IC50 is above 5 µM in test [1], above 5 µM in test [2], above 10 µM in test [3] and above 10 µM in test [5].

With `Cc1cc(-c2nc(C)c(-c3nnc(SCC(=O)Nc4ccc(Cl)cc4)n3C)s2)no1` [Compound 169, reference compound], the concentration for half-maximal inhibition (IC50) is above 5 µM in test [1], above 5 µM in test [2], above 10 µM in test [3] and above 10 µM in test [5].

As for `CC(C)c1ccc(NC(=O)CSc2nnc(CSc3cccs3)n2C)cc1` [Compound 153, reference compound], the half-inhibitory concentration (IC50) in test [1] is above 5 µM; in test [2], above 5 µM; in test [3], above 10 µM; in test [5], above 10 µM.

For `CCC(C)c1ccc(NC(=O)CSc2nncn2C)cc1` (centres unmarked) [Compound 172, reference compound], the IC50 in test [1] was above 5 µM; in test [2] it was above 5 µM; in test [3], 2 µM; in test [5] it was 2.3 µM.

Regarding `Cn1c(CC2Sc3ccccc3NC2=O)nnc1SCC(=O)Nc1ccc(Cl)cc1` (centres unmarked) [Compound 167, reference compound], the half-inhibitory concentration (IC50) in test [1] is above 5 µM; in test [2] it was above 5 µM; in test [3] it was above 10 µM; in test [5], above 10 µM.

As for `CCn1c(SCC(=O)Nc2cc(C)ccc2OC)nnc1C(F)(F)F` [Compound 157, N-(2-Methoxy-5-methyl-phenyl)-2-(4-ethyl-5-trifluoromethyl-4H-[1,2,4]triazol-3-ylsulfanyl)-acetamide, reference compound], the IC50 in test [1] is above 5 µM; in test [2], above 5 µM; in test [3], above 10 µM; in test [5], above 10 µM.

For `O=C(CSc1ncc[nH]1)Nc1ccc(C(=O)c2ccccc2)cc1` [Compound 4, N-(4-Benzoyl-phenyl)-2-(1H-imidazol-2-ylsultanyl)-acetamide], the half-maximal inhibitory concentration (IC50) in test [1] is above 5 µM; in test [2], above 5 µM; in test [3], 0.36 µM; in test [4] it was above 5 µM.

The IC50 is the midpoint of a concentration-inhibition curve.

The values above are taken from patent publication US6245817A, “NPY5 receptor antagonists and methods for using same” (Bayer Corporation, priority 1999, dated 2001).
